Measurements: patent publication US20150315241A1, “Antibiotic Peptides” (priority 2007, published 2015)
≈ marks a conversion by molar mass, not a printed value. Like-named read-outs stand apart in the source and are kept apart here. Where a SMILES comes first, the peptide text is derived from it. Where no end group is shown, it is not given here. [ ]: non-standard residue; d: D form. NMeL = CN[C@@H](CC(C)C)C(=O)O; Orn = NCCC[C@H](N)C(=O)O

What was measured:
[1] = tested on: R. radiobatter ATCC 15955; experiment: Growth inhibition assay (MIC); format: cell-based, Rhizobium radiobacter
Summary of the method: (§1)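 Bacteria grown overnight in nutrient broth at 37° C were diluted to 5×10^6 CFU/mL in 1% TSB and exposed to peptides serially halved from 125 μg/mL to 60 ng/mL final. After 20 h at 37° C, A595 gave the MIC, measured in triplicate.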

E. coli D31 = format: cell-based, Escherichia coli; details: D31, 20 h
Summary of the method: as §1

S. typhi S5 = format: cell-based, Salmonella typhi; details: S5, 20 h
Summary of the method: as §1

E. coli 45849 = experiment: Growth inhibition assay (MIC); format: cell-based, Escherichia coli
Summary of the method: as §1

in vitro = in vitro ADME, mouse
Summary of the method: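 Peptide or peptidomimetic (0.5 mg/mL aqueous stock) incubated in 25% pooled mouse serum at 37 °C, sampled at 0–6 h, in duplicate. Proteins precipitated with 15% TCA; supernatants neutralized and analyzed by RP-HPLC with 0.1% TFA. Degradation products identified by MALDI-TOF/TOF-MS.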

M. luteus ATCC 10240 = format: cell-based, Micrococcus luteus
Summary of the method: (§2)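 Peptides were serially diluted two-fold in 1% TSB, giving final concentrations from 125 μg/mL down to 60 ng/mL, and mixed with overnight bacterial culture adjusted to 5×10^6 CFU/mL in 1% TSB. After 20 hrs at 37 °C, growth was read as absorbance at 595 nm, in triplicate, with sterile water as negative control.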

E. coli BL 21 AI = experiment: Growth inhibition assay (MIC); format: cell-based, Escherichia coli; details: 1% TSB, 37° C., 20 hrs
Summary of the method: as §2

[2] = tested on: K. Pneumonia K6, ATCC 700603; experiment: Growth inhibition assay (MIC); format: cell-based, Klebsiella pneumoniae; details: multidrug resistant strain; 1% TSB, 37° C., 20 hrs
Summary of the method: as §1

K. Pneumonia 123132 = experiment: Growth inhibition assay (MIC); format: cell-based, Klebsiella pneumoniae
Summary of the method: as §1

K. pneumonia 681 = format: cell-based, Klebsiella pneumoniae
Summary of the method: as §2

B. subtilis 347 = format: cell-based, Bactillus subtillis
Summary of the method: as §2

[3] = tested on: S. enterica subsp. Enterica serovar. typhi G10215 ATCC 700408; format: cell-based, Salmonella enterica; details: ATCC 700408, 20 h
Summary of the method: as §1

E. coli 1103 = format: cell-based, Escherichia coli
Summary of the method: as §2

E. coli 10233 = format: cell-based, Escherichia coli
Summary of the method: as §2

E. coli DC 2 = experiment: Growth inhibition assay (MIC); format: cell-based, Escherichia coli; details: 1% TSB, 37° C., 20 hrs
Summary of the method: as §2

[4] = multidrug resistant strain, 1% TSB, 37° C., 20 hrs
[5] = 25% aqueous mouse serum, 37° C., read-out: Half-life time

Row | Compound | MIC R. radiobatter ATCC 15955 [1, 4] | MIC E. coli D31 (E. coli D31) | MIC S. typhi S5 (S. typhi S5) | MIC E. coli 45849 (E. coli 45849; [4]) | half-life at 0.061 mg/mL (in vitro; [5]) | MIC M. luteus ATCC 10240 (M. luteus ATCC 10240; ATCC 10240, 20 h) | MIC E. coli BL 21 AI (E. coli BL 21 AI) | MIC K. Pneumonia K6, ATCC 700603 [2] | MIC K. Pneumonia 123132 (K. Pneumonia 123132; [4]) | MIC K. pneumonia 681 (K. pneumonia 681; 20 h) | MIC S. enterica subsp. Enterica serovar. typhi G10215 ATCC 700408 [3] | MIC E. coli 1103 (E. coli 1103; 1103, 20 h) | MIC E. coli DC 2 (E. coli DC 2) | other results
1 | CC[C@H](C)[C@H](NC(=O)[C@@H]1CCCN1C(=O)[C@H](CCCNC(=N)N)NC(=O)[C@@H]1CCCN1C(=O)[C@H](Cc1c[nH]cn1)NC(=O)[C@@H]1CCCN1C(=O)[C@@H]1CCCN1C(=O)[C@H](CCCNC(=N)N)NC(=O)[C@@H]1CCCN1C(=O)[C@H](CCCNC(=N)N)NC(=O)[C@@H]1CCCN1C(=O)[C@@H](NC(=O)[C@H](Cc1ccc(O)cc1)NC(=O)[C@@H](NC(=O)[C@@H]1CCCN1C(=O)[C@H](CCCNC(=N)N)NC(=O)[C@H](CC(N)=O)NC(=O)[C@H](CC(N)=O)NC(=O)[C@@H](N)CCCN)C(C)C)[C@@H](C)CC)C(=O)N[C@@H](CCCNC(=N)N)C(=O)N[C@H](C(=O)O)C(C)C [compound 23] (H-[Orn]NNRPVYIPRPRPPHPRPIRV-OH) | 0.65 µg/mL (≈ 0.255 µM) | 64 µg/mL (≈ 25.1 µM) | 8 µg/mL (≈ 3.14 µM) | 8 µg/mL (≈ 3.14 µM) | 4 h | 0.12 µg/mL (≈ 0.0471 µM) | 1.95 to 3.91 µg/mL | 32 µg/mL (≈ 12.6 µM) | 16 µg/mL (≈ 6.28 µM) | 62.5 µg/mL (≈ 24.5 µM) | 8 µg/mL (≈ 3.14 µM) | 7.81 µg/mL (≈ 3.07 µM) |  | MIC B. subtilis 347 (B. subtilis 347; 347, 20 h): 125 µg/mL (≈ 49.1 µM); MIC E. coli 10233 (E. coli 10233; 10233, 20 h): 3.91 µg/mL (≈ 1.54 µM)
2 | GNNRPVYIPRPRPPHPRI-NH2 [compound 14] |  | 64 µg/mL |  |  |  | 0.98 µg/mL | 0.49 µg/mL | 8 µg/mL |  | 15.62 µg/mL | 2 µg/mL | 0.98 µg/mL | 7.81 µg/mL | 
3 | CC[C@H](C)[C@H](NC(=O)[C@H](Cc1ccc(O)cc1)NC(=O)[C@@H](NC(=O)[C@@H]1CCCN1C(=O)[C@H](CCCNC(=N)N)NC(=O)[C@H](CC(N)=O)NC(=O)[C@H](CC(N)=O)NC(=O)[C@@H](N)CCCN)C(C)C)C(=O)N1CCC[C@H]1C(=O)N[C@@H](CCCN)C(=O)N1CCC[C@H]1C(=O)N[C@@H](CCCNC(=N)N)C(=O)N1CCC[C@H]1C(=O)N1CCC[C@H]1C(=O)N[C@@H](Cc1c[nH]cn1)C(=O)N1CCC[C@H]1C(=O)N[C@@H](CCCNC(=N)N)C(=O)N[C@@H](CC(C)C)C(N)=O [compound 12] (H-[Orn]NNRPVYIP[Orn]PRPPHPRL-NH2) |  | 4 µg/mL (≈ 1.86 µM) | <0.5 µg/mL |  | 0.25 h |  | 0.98 µg/mL (≈ 0.456 µM) | 4 µg/mL (≈ 1.86 µM) |  |  | <0.25 µg/mL |  |  | MIC R. radiobatter ATCC 15955 ([1]; ATCC 15955, 20 h): 0.65 µg/mL (≈ 0.302 µM); MIC E. coli 45849 (E. coli 45849; 45849, 20 h): 1 µg/mL (≈ 0.465 µM); MIC M. luteus ATCC 10240 (M. luteus ATCC 10240; 1% TSB, 37° C., 20 hrs): 1.95 µg/mL (≈ 0.907 µM); MIC K. Pneumonia 123132 (K. Pneumonia 123132; 20 h): 4 µg/mL (≈ 1.86 µM); MIC K. pneumonia 681 (K. pneumonia 681; 1% TSB, 37° C., 20 hrs): 7.81 µg/mL (≈ 3.63 µM); MIC B. subtilis 347 (B. subtilis 347; 1% TSB, 37° C., 20 hrs): 62.5 µg/mL (≈ 29.1 µM); MIC E. coli 1103 (E. coli 1103; 1% TSB, 37° C., 20 hrs): 3.91 µg/mL (≈ 1.82 µM); MIC E. coli 10233 (E. coli 10233; 1% TSB, 37° C., 20 hrs): 0.98 to 1.95 µg/mL
4 | CC[C@H](C)[C@H](NC(=O)[C@H](Cc1ccc(O)cc1)NC(=O)[C@@H](NC(=O)[C@@H]1CCCN1C(=O)[C@H](CCCNC(=N)N)NC(=O)[C@H](CC(N)=O)NC(=O)[C@H](CC(N)=O)NC(=O)[C@H](CCCN)NC(C)=O)C(C)C)C(=O)N1CCC[C@H]1C(=O)N[C@@H](CCC(N)=O)C(=O)N1CCC[C@H]1C(=O)N[C@@H](CCCNC(=N)N)C(=O)N1CCC[C@H]1C(=O)N1CCC[C@H]1C(=O)N[C@@H](Cc1c[nH]cn1)C(=O)N1CCC[C@H]1C(=O)N[C@@H](CCCNC(=N)N)C(=O)N(C)[C@@H](CC(C)C)C(N)=O [compound 32] (Ac-[Orn]NNRPVYIPQPRPPHPR[NMeL]-NH2) | 1.3 µg/mL (≈ 0.585 µM) | 64 µg/mL (≈ 28.8 µM) | 32 µg/mL (≈ 14.4 µM) | 8 µg/mL (≈ 3.6 µM) |  | 7.81 µg/mL (≈ 3.52 µM) | 15.63 µg/mL (≈ 7.04 µM) | >128 µg/mL | >64 µg/mL | >125 µg/mL | 8 µg/mL (≈ 3.6 µM) | 31.4 µg/mL (≈ 14.1 µM) |  | Half-life time (in vitro; 25% aqueous mouse serum, 37° C.): >6 h; half-life at 0.061 mg/mL (in vitro; mouse, 25% aqueous serum, 37° C., read-out: half-life): > 6 h; MIC B. subtilis 347 (B. subtilis 347; 347, 20 h): >125 µg/mL; MIC E. coli 10233 (E. coli 10233; 10233, 20 h): 31.25 µg/mL (≈ 14.1 µM)
5 | H-GNNRPVYLPQPRPPHPRI-NH2 [compound 26] | 2.6 µg/mL | >128 µg/mL | 32 µg/mL | 16 µg/mL |  | 1.95 µg/mL | 3.91 µg/mL | 128 µg/mL | 32 µg/mL | 15.62 µg/mL | 4 µg/mL | 3.91 µg/mL | 7.81 µg/mL | 
6 | GNNRPVYIPKPRPPHPRI-NH2 [compound 17] | 0.65 µg/mL | 32 µg/mL | 16 µg/mL | 8 µg/mL |  | 0.98 µg/mL | 0.98 µg/mL | 32 µg/mL | 16 µg/mL | 31.25 µg/mL | 4 to 8 µg/mL | 1.95 µg/mL | 31.25 µg/mL | 
7 | CC[C@H](C)[C@H](NC(=O)[C@H](Cc1ccc(O)cc1)NC(=O)[C@@H](NC(=O)[C@@H]1CCCN1C(=O)[C@H](CCCNC(=N)N)NC(=O)[C@H](CC(N)=O)NC(=O)[C@H](CC(N)=O)NC(=O)[C@H](CCCN)NC(C)=O)C(C)C)C(=O)N1CCC[C@H]1C(=O)N[C@@H](CCCN)C(=O)N1CCC[C@H]1C(=O)N[C@@H](CCCNC(=N)N)C(=O)N1CCC[C@H]1C(=O)N1CCC[C@H]1C(=O)N[C@@H](Cc1c[nH]cn1)C(=O)N1CCC[C@H]1C(=O)N[C@@H](CCCNC(=N)N)C(=O)N[C@@H](CC(C)C)C(N)=O [compound 13] (Ac-[Orn]NNRPVYIP[Orn]PRPPHPRL-NH2) |  | 4 µg/mL (≈ 1.82 µM) | <0.5 µg/mL |  | 0.25 h |  | 1.95 µg/mL (≈ 0.889 µM) | 8 µg/mL (≈ 3.65 µM) |  |  | <0.25 µg/mL |  |  | MIC R. radiobatter ATCC 15955 ([1]; ATCC 15955, 20 h): <0.16 µg/mL; MIC E. coli 45849 (E. coli 45849; 45849, 20 h): 2 µg/mL (≈ 0.912 µM); degradation pathway in serum (N-/C-terminal) (in vitro; 25% mouse serum, metabolites by MALDI-MS): not degraded N-terminally, but only from the C-terminal end; MIC M. luteus ATCC 10240 (M. luteus ATCC 10240; 1% TSB, 37° C., 20 hrs): 1.95 µg/mL (≈ 0.889 µM); MIC K. Pneumonia 123132 (K. Pneumonia 123132; 20 h): 8 µg/mL (≈ 3.65 µM); MIC K. pneumonia 681 (K. pneumonia 681; 1% TSB, 37° C., 20 hrs): 3.91 µg/mL (≈ 1.78 µM); MIC B. subtilis 347 (B. subtilis 347; 1% TSB, 37° C., 20 hrs): 125 µg/mL (≈ 57 µM); MIC E. coli 1103 (E. coli 1103; 1% TSB, 37° C., 20 hrs): 3.81 µg/mL (≈ 1.74 µM); MIC E. coli 10233 (E. coli 10233; 1% TSB, 37° C., 20 hrs): 1.95 µg/mL (≈ 0.889 µM)
